14 compounds from ChEMBL document CHEMBL1268888, “Antiviral activity of 2,3'-anhydro and related pyrimidine nucleosides against hepatitis B virus” (Bioorg Med Chem Lett, 2010) can be followed below.

≈ marks a conversion by molar mass, not a printed value. Some results are limits rather than exact numbers.

Series [1] has as its system Hepatitis B virus. The series can be described thus: Antiviral activity against HBV infected in duck primary hepatocytes. Type of series: functional, organism-based. To be noted: Hepatocyte.
Series [2] has as its system Hepatitis B virus. The series can be described thus: Antiviral activity against HBV infected in duck primary hepatocytes at 10 ug/ml. Type of series: functional. To be noted: Hepatocyte.
Series [3] can be described thus: Stability of the compound in PBS buffer at physiological pH and 37 degC upto 48 hrs. Type of series: physicochemical.
In series [4] the test system is Hepatitis B virus. The series is described as follows: Antiviral activity against HBV infected in human 2.2.15 cell at 10 ug/ml. It is filed as functional, organism-based. To be noted: HepG2 2.2.15.
The nature of series [5]: Stability of the compound in fetal bovine serum at 37 degC after 24 hrs. Type of series: ADME. To be noted: cattle.
Series [6] in a line: Cytotoxicity against human HuH7 cells. Type of series: cell-based, Huh-7.
For series [7], the system named is Hepatitis B virus. The series can be described thus: Antiviral activity against HBV infected in human 2.2.15 cell. It is filed as functional, organism-based. To be noted: HepG2 2.2.15.

A word on the EC50: it is the midpoint of the concentration-response curve. One may read the inhibition as the relative decrease from the control value, in per cent. As usually defined, the CC50 is the concentration giving 50% cytotoxicity. The compound `O=c1nc2n(cc1C(F)(F)F)[C@H]1C[C@H](O2)[C@@H](CO)O1` registered a half-maximal effective concentration (EC50) in series [1] of over 10 µg/mL. For the same compound, the inhibition at 10 µg/mL in series [2] amounted to 35%; in series [4] it was 25%. For the same compound, the Stability entry in series [3] and in series [5] was “Stable” in each case. The compound further showed a 50% cytotoxic concentration (CC50) in series [6] of over 200 µg/mL.
In series [4], `O=c1ccn([C@H]2C[C@H](O)[C@@H](CO)O2)c(=O)[nH]1` [DEOXYURIDINE] returned an inhibition at 10 µg/mL of 0%. In series [6], this compound yielded a CC50 of over 200 µg/mL.
As for `O=c1ccn2c(n1)O[C@H]1C[C@H]2O[C@@H]1CO`, the EC50 in series [1] amounted to 2.5 µg/mL (≈ 11.9 µM); in series [7] it was 5 µg/mL (≈ 23.8 µM). Further, the figures for the inhibition at 10 µg/mL in series [2] and in series [4] were 67% and 65%, respectively. For the same compound, the Stability entry in series [3] and in series [5] was “Stable” in each case. Besides, in series [6], the cytotoxic concentration (CC50) is over 200 µg/mL.
On to `Cc1cn([C@H]2C[C@@H](OS(C)(=O)=O)[C@@H](CO)O2)c(=O)[nH]c1=S`, for which the EC50 is 2.5 µg/mL (≈ 7.43 µM) in series [1] and over 10 µg/mL in series [7]. In addition, the inhibition at 10 µg/mL in series [2] was determined as 70%; in series [4], 45%. Besides, in series [6], the 50% cytotoxic concentration (CC50) was over 200 µg/mL.
Take `Cc1cn2c(nc1=O)O[C@H]1C[C@H]2O[C@@H]1CO`: the EC50 in series [1] and in series [7] was 10 µg/mL (≈ 44.6 µM) in each case. The inhibition at 10 µg/mL amounted to 56% in series [2] and 54% in series [4]. In addition, the Stability result in series [3] and in series [5] was “Stable” throughout. The half-maximal cytotoxic concentration (CC50) in series [6] was over 200 µg/mL.
The compound `CCc1cn([C@H]2C[C@H](O)[C@@H](CO)O2)c(=O)[nH]c1=O` [EDOXUDINE] came in with a half-maximal effective concentration (EC50) in series [7] of over 10 µg/mL. In series [4], this compound registered an inhibition at 10 µg/mL of 40%. In series [6], the CC50 was over 200 µg/mL.
`CCc1cn2c(nc1=O)O[C@H]1[C@H](F)[C@H]2O[C@@H]1CO`: the EC50 in series [1] came to 2.5 µg/mL (≈ 9.76 µM); in series [7] it was 10 µg/mL (≈ 39 µM). The inhibition at 10 µg/mL in series [2] was 65%; in series [4], 53%. The Stability entry in series [3] and in series [5] was “Stable” each time. The same compound displayed a cytotoxic concentration (CC50) in series [6] of over 200 µg/mL.
As for `Nc1ccn([C@@H]2CS[C@H](CO)O2)c(=O)n1` [LAMIVUDINE], the EC50 in series [1] is 0.05 µg/mL (≈ 0.218 µM); in series [7], 0.2 µg/mL (≈ 0.872 µM). For the same compound, the inhibition at 10 µg/mL in series [2] was determined as 96%; in series [4], 88%. Besides, the half-maximal cytotoxic concentration (CC50) in series [6] was over 200 µg/mL.
In turn, `CCc1cn([C@@H]2O[C@H](CO)[C@@H](O)[C@@H]2F)c(=O)[nH]c1=O` returned a half-maximal effective concentration (EC50) in series [7] of under 10 µg/mL. For the same compound, the inhibition at 10 µg/mL in series [4] was determined as 90%. In series [6], this compound yielded a half-maximal cytotoxic concentration (CC50) of over 200 µg/mL.
In series [6], `Cc1cn([C@H]2C[C@@H](O)[C@@H](CO)O2)c(=O)[nH]c1=O` yielded a CC50 of over 200 µg/mL.
As for `Cc1cn([C@H]2C[C@H](O)[C@@H](CO)O2)c(=O)[nH]c1=O` [DOXRIBTIMINE], the inhibition at 10 µg/mL in series [4] turned out to be 0%. The same compound had a CC50 in series [6] of over 200 µg/mL.
In the case of `O=c1nc2n(cc1F)[C@H]1C[C@H](O2)[C@@H](CO)O1`, the inhibition at 10 µg/mL in series [2] came to 30%; in series [4], 0%. For the same compound, the Stability result in series [3] and in series [5] was “Stable” each time. Also, in series [6], the 50% cytotoxic concentration (CC50) was over 200 µg/mL.
As to `CCc1cn2c(nc1=O)O[C@H]1C[C@H]2O[C@@H]1CO`, the inhibition at 10 µg/mL in series [2] turned out to be 32%; in series [4] it was 51%. Further, the Stability result in series [3] and in series [5] was “Stable” each time. The same compound came in with a concentration for a half-maximal effect (EC50) in series [7] of 10 µg/mL (≈ 42 µM). Further, the 50% cytotoxic concentration (CC50) in series [6] was over 200 µg/mL.
In series [4], `O=c1[nH]c(=O)n([C@H]2C[C@H](O)[C@@H](CO)O2)cc1C(F)(F)F` [TRIFLURIDINE] yielded an inhibition at 10 µg/mL of 0%. The same compound yielded a 50% cytotoxic concentration (CC50) in series [6] of over 200 µg/mL.
